Laboratory results: US4526890A, “3,6,7,8-Substituted-s-triazolo[4,3-b]pyridazines as bronchodilators” (The Dow Chemical Company, priority 1981, dated 1985)

Key:
[1] = Audiogenic convulsive side effects (sound challenge: tonic convulsions and fatalities); conditions: mouse, ip
Protocol: (§1) The interaction of sound with the convulsive threshold of drugs is a known phenomenon which can be used to evaluate such side effects. […] In a procedure for pharmacological evaluation, the lowering of the convulsive threshold, or the lowering of the LD50, by sound can be studied in mice.
(§2) In the test operations, mice are administered a test compound by intraperitoneal injection at various dosages, and the number of mice showing tonic convulsions and the number of fatalities occurring within 30 minutes is recorded.
The sound exposure is carried out by placing the mice in a sound insulated cage with a bell which emits 120 decibels of sound, and activating the bell for two minutes. The number of tonic convulsions and fatalities are then recorded to determine the ED50 and LD50 in the presence of the sound challenge.

[2] = test system: histamine-induced bronchoconstriction; assay: Bronchodilator activity in the Konzett-Rossler guinea pig preparation (histamine-induced bronchoconstriction); assay type: in vivo; parameters: key to Histamine Blockade: % blockade = 100 − (post-dose response / mean of 3 prior) × 100; conditions: for Histamine Blockade: table 7, intravenous, 3 mg/kg except as otherwise indicated, aminophylline 10 mg/kg; for percent blockade of histamine: 3 mg/kg intravenously, 2 minutes prior to histamine
Protocol: Bronchodilator activity of representative triazolopyridazine compounds of the invention is examined in the Konzett-Rossler quinea pig preparation according to accepted procedures. See Knozett and Rossler; Arch. f. Exp. Path. u. Pharmakol. […] Int. Pharmacodyn. […] In this procedure an anesthetized guinea pig is artificially respired with a fixed volume of air. The volume of air is selected to slightly exceed the capacity of the guinea pig's lungs, and the excess air or "overflow" is measured. Test compounds are evaluated by administering a test compound intravenously 2 minutes prior to administration of an agonist compound (histamine, serotonin or acetylcholine) following 3 previous agonist doses resulting in relatively uniform (±10 percent) bronchoconstriction. […] This is calculated by dividing the "overflow" agonist response measured after administration of the test compound by the average of the 3 preceding agonist responses, multiplying by 100 and subtracting this value from 100 percent.

[3] = 30 minute LD50 (acute toxicity without sound); conditions: mouse, in vivo, ip
Protocol: as §1, §2

histamine aerosol = assay: Histamine aerosol exposure (collapse time); assay type: in vivo, guinea pigs; conditions: Cavia porcellus, ip, 2 h, challenged two hours after intraperitoneal injection; collapse time > mean + two SD of controls
Protocol: In another procedure, test compounds were administered to guinea pigs by intraperitoneal injection and the guinea pigs were challenged two hours later by exposure to a histamine aerosol. Untreated animals collapse when exposed to the histamine aerosol. […] The ED50 's of representative compounds are set out in the following table.

Question: For `c1nnc2c3c(c(N4CCCC4)nn12)C1CCC3CC1` [Example 15], which LD50 ([1]; in vivo) is on record?
Answer: Its LD50 is 117 mg/kg.

Question: And the TD50 [1]?
Answer: The TD50 was 117 mg/kg.

Question: What about the “Histamine Blockade” value [2] of the same molecule?
Answer: Its value is 66.

Question: And the LD50 at 0.5 h [3]?
Answer: Its LD50 at 0.5 h is 136 mg/kg.

Question: With `CN(C)c1nn2cnnc2c2c1CCCC2` [Example 32] as the molecule, how does the ED50 (histamine aerosol) read?
Answer: The ED50 was 2.5 mg/kg.

Question: For `Cc1cc2nnc(C)n2nc1N1CCCCC1` [3,7-dimethyl-6-piperidino-s-triazolo[4,3-b]pyridazine], which LD50 ([1]; in vivo) is on record?
Answer: Its LD50 is 327 mg/kg.

Question: What about the TD50 [1] of the same molecule?
Answer: Its TD50 is 260 mg/kg.

Question: What about the “percent blockade of histamine” value [2] of the same molecule?
Answer: Its value is 48%.

Question: And the “Histamine Blockade” value [2]?
Answer: The value was 48.

Question: And the LD50 at 0.5 h [3]?
Answer: The LD50 at 0.5 h was 327 mg/kg.

Question: Which results are given for `Cc1cc2nncn2nc1N1CCN(C)CC1` [Example 4, 7-Methyl-6-N-methylpiperazino-s-triazolo[4,3-b]pyridazine]?
Answer: LD50 ([1]; in vivo): 140 mg/kg; TD50 ([1]; in vivo): 116 mg/kg; percent blockade of histamine [2]: 39%; Histamine Blockade [2]: 39; LD50 at 0.5 h [3]: 272 mg/kg

Question: Which LD50 ([1]; in vivo) does the source give for `Cc1nnc2c3c(c(N4CCCC4)nn12)C1CCC3CC1` [Example 18] here?
Answer: Its LD50 is 141 mg/kg.

Question: And the TD50 ([1]; in vivo)?
Answer: Its TD50 is 141 mg/kg.

Question: And the “Histamine Blockade” value [2]?
Answer: The value was 55.

Question: What about the LD50 at 0.5 h [3] of the same molecule?
Answer: The LD50 at 0.5 h was 141 mg/kg.

Question: With `CCc1nnc2c3c(c(N4CCCN(C)CC4)nn12)CCCC3` [Example 45] as the molecule, how does the ED50 (histamine aerosol) read?
Answer: Its ED50 is 5 mg/kg.

Question: For `Cc1cc2nncn2nc1N1CCCC1` [Example 3, 7-methyl-6-pyrrolidino-s-triazolo[4,3-b]pyridazine], which LD50 ([1]; in vivo) is on record?
Answer: Its LD50 is 176 mg/kg.

Question: What about the TD50 [1] of the same molecule?
Answer: The TD50 was 141 mg/kg.

Question: What about the “Histamine Blockade” value [2] of the same molecule?
Answer: Its value is 43.

Question: And the LD50 at 0.5 h [3]?
Answer: The LD50 at 0.5 h was 272 mg/kg.

Question: Which results are given for `CN1CCN(c2nn3cnnc3c3c2C2CCC3C2)CC1` (stereo not shown) [Example 5, 7,8,9,10-tetrahydro-6-[4-methyl-1-piperazinyl)-7,10-methano(1,2,4)triazolo[3,4-a]phthalazine]?
Answer: LD50 ([1]; in vivo): 147 mg/kg; TD50 [1]: 147 mg/kg; Histamine Blockade [2]: 92; LD50 at 0.5 h [3]: 175 mg/kg

Question: With `CC(C)c1nnc2c3c(c(N4CCCC4C)nn12)CCCC3` (stereo not shown) [Example 55] as the molecule, how does the ED50 (histamine aerosol) read?
Answer: Its ED50 is ~7.9 mg/kg.

Question: With `CNc1nn2c(C)nnc2c2c1CCCC2` [Example 38] as the molecule, how does the ED50 (histamine aerosol) read?
Answer: The ED50 was 2.1 mg/kg.

Question: Which LD50 ([1]; in vivo) does the source give for `c1nnc2c3c(c(N4CCOCC4)nn12)C1CCC3CC1` [Example 17] here?
Answer: Its LD50 is 85 mg/kg.

Question: What about the TD50 [1] of the same molecule?
Answer: The TD50 was 62 mg/kg.

Question: And the “Histamine Blockade” value [2]?
Answer: Its value is 58.

Question: And the LD50 at 0.5 h [3]?
Answer: The LD50 at 0.5 h was 118 mg/kg.

Question: Which LD50 ([1]; in vivo) does the source give for `Cc1nnc2c3c(c(N4CCN(C)CC4)nn12)C1CCC3CC1` [Example 23] here?
Answer: The LD50 was 147 mg/kg.

Question: What about the TD50 ([1]; in vivo) of the same molecule?
Answer: The TD50 was 147 mg/kg.

Question: And the “Histamine Blockade” value [2]?
Answer: The value was 90.

Question: What about the LD50 at 0.5 h [3] of the same molecule?
Answer: The LD50 at 0.5 h was 147 mg/kg.

Question: Which ED50 (histamine aerosol) does the source give for `CC1CCCN1c1nn2cnnc2c2c1CCCC2` (stereo not shown) [Example 30, 6-(2-methylpyrrolidinyl)-7,8-tetramethylene(1,2,4)triazolo[4,3-b]pyridazine] here?
Answer: The ED50 was 1.6 mg/kg.

Question: With `c1nnc2c3c(c(N4CCCC4)nn12)C1CCC3C1` (stereo not shown) [Example 7] as the molecule, how does the LD50 ([1]; in vivo) read?
Answer: The LD50 was 100 mg/kg.

Question: What about the TD50 [1] of the same molecule?
Answer: Its TD50 is 93 mg/kg.

Question: And the “Histamine Blockade” value [2]?
Answer: Its value is 87.

Question: And the LD50 at 0.5 h [3]?
Answer: The LD50 at 0.5 h was 136 mg/kg.

Question: Which ED50 (histamine aerosol) does the source give for `CC(C)c1nnc2c3c(c(N4CCCC4)nn12)CCCC3` [Example 56] here?
Answer: The ED50 was ~5.1 mg/kg.

Question: With `CN1CCN(c2nn3cnnc3c3c2C2CCC3CC2)CC1` [Example 21] as the molecule, how does the LD50 ([1]; in vivo) read?
Answer: Its LD50 is 147 mg/kg.

Question: And the TD50 [1]?
Answer: Its TD50 is 113 mg/kg.

Question: What about the “Histamine Blockade” value [2] of the same molecule?
Answer: Its value is 82.

Question: And the LD50 at 0.5 h [3]?
Answer: Its LD50 at 0.5 h is 147 mg/kg.

Question: Which results are given for `Cc1nnc2c3c(c(N4CCOCC4)nn12)CCCC3` [6-Morpholino-3-methyl-7,8-tetramethylene-s-triazolo[4,3-b]pyridazine]?
Answer: LD50 ([1]; in vivo): 126 mg/kg; selectivity ratio ([1]; in vivo): ~1.18; TD50 [1]: 90 mg/kg; Histamine Blockade [2]: 61; LD50 at 0.5 h [3]: 149 mg/kg

Question: Which LD50 ([1]; in vivo) does the source give for `Cc1c(N2CCOCC2)nn2cnnc2c1C` [R7 Methyl; R3 H; R8 CH3; R6 Morpholino, 6-Morpholino-7,8-dimethyl-s-triazolo[4,3-b]pyridazine] here?
Answer: Its LD50 is 272 mg/kg.

Question: What about the TD50 ([1]; in vivo) of the same molecule?
Answer: The TD50 was 272 mg/kg.

Question: And the “Histamine Blockade” value [2]?
Answer: The value was 46.

Question: What about the LD50 at 0.5 h [3] of the same molecule?
Answer: Its LD50 at 0.5 h is 272 mg/kg.

Question: Which LD50 ([1]; in vivo) does the source give for `c1nnc2c3c(c(N4CCCCC4)nn12)C1CCC3C1` (stereo not shown) [Example 8] here?
Answer: The LD50 was 98 mg/kg.

Question: What about the TD50 [1] of the same molecule?
Answer: Its TD50 is 90 mg/kg.

Question: And the “Histamine Blockade” value [2]?
Answer: Its value is 84.

Question: What about the LD50 at 0.5 h [3] of the same molecule?
Answer: Its LD50 at 0.5 h is 108 mg/kg.

Question: Which inhibition in vivo at 10 mg/kg ([2]; Cavia porcellus, iv, read-out: Histamine Blockade) does the source give for `Cn1c(=O)c2[nH]cnc2n(C)c1=O` [Aminophylline, reference compound] here?
Answer: The inhibition in vivo at 10 mg/kg was 37%.

Question: Which ED50 (histamine aerosol) does the source give for `CCc1nnc2c3c(c(N4CCN(C)CC4)nn12)CCCC3` [Example 53] here?
Answer: The ED50 was 36.4 mg/kg.

Question: For `CC1CCN(c2nn3cnnc3c3c2CCCC3)CC1` [Example 34], which ED50 (histamine aerosol) is on record?
Answer: Its ED50 is 1.3 mg/kg.
